A short description of the data set: Human HepG2 cell viability assay in 384 well format. It counts as toxicity, cell-based. Also on record: dose 125 nL, time 70.5 hour; concentration not given beside the values. The note with it: HepG2 cells, read-out: Inhibition.
For `COc1cccc2c3c(c(=O)[nH]c12)CCC(C)(C)O3`, the cytotoxicity at 70.5 h was -5.31%.
In the case of `NS(=O)(=O)c1cccnc1Nc1c(Cl)cccc1Cl` it was 14%.
The figure for `O=c1ncn(-c2ccc(F)cc2)c2ncccc12` is -6.86%.
The figure for `Cn1c(=O)c2c(n3ncnc13)NC(=O)CC2c1cccc(F)c1` (centres undefined) is -11.8%; for `Cc1ccc2c(c1)Oc1ncccc1C(=O)N2` it is -0.446%.
Regarding `CN1CCc2c(sc3c2C(=O)NC(/C=C/c2ccccc2)N3)C1` (centres undefined), the cytotoxicity at 70.5 h is -11.3%.
The figure for `CCOC(=O)c1ccc(NC(=O)c2c(O)nc3c(c2O)CCCC3)cc1` is -10.8%; for `CC(C)n1[nH]c(=O)c2c1NC(=O)CSC2c1ccc(OCC(N)=O)cc1` (centres undefined) it is -11.1%.
The figure for `CC(C)COc1ccc(C2SCC(=O)Nc3c2c(=O)[nH]n3C(C)C)cc1` (centres undefined) is -4.59%.
In the case of `O=C(Cn1nc2c(cc1=O)CCCC2)NC(Cc1ccccc1)C(=O)O` (centres undefined) it was -10.7%.
For the molecule `Cc1cccc(NC(=O)Cc2cnc3n(C)c(=O)[nH]c(=O)n23)c1`, the cytotoxicity at 70.5 h is 22.4%.
In the case of `Cn1c(=O)[nH]c(=O)n2c(CC(=O)Nc3ccccc3)cnc12` it was -15.7%; in that of `COCCNC(=O)C1CCCN(c2ccc3nncn3n2)C1` (centres undefined), 9.49%; in that of `CCOC(=O)Cn1c(=O)nc2n1C(=O)N(c1ccccc1)C2`, 8.85%.
In the case of `COC(=O)Cn1c(=O)nc2n1C(=O)N(c1cccc(C)c1)C2` it was -7.13%; in that of `COC(=O)Cn1c(=O)nc2n1C(=O)N(c1ccc(F)cc1)C2`, -12.5%; in that of `CN1CCN(C(=O)Cn2ccc3c(Cl)cccc32)CC1`, -12.2%.
The figure for `Cc1cnc(NC(=O)c2csc(NCC(C)C)n2)s1` is 9.3%; for `CC(C)n1[nH]c(=O)c2c1NC(=O)CC2c1cccc2cccnc12` (centres undefined) it is 15.8%.
Take `CC(C)n1[nH]c(=O)c2c1NC(=O)CC2c1ccncc1` (centres undefined): the cytotoxicity at 70.5 h was -11.3%.
The figure for `CC(C)n1[nH]c(=O)c2c1NC(=O)CC2c1ccc(C#N)cc1` (centres undefined) is 18.7%; for `CSc1ccc(C2CC(=O)Nc3c2c(=O)[nH]n3C(C)C)cc1` (centres undefined) it is -9.28%; for `COc1cccc(C2CC(=O)Nc3c2cnn3C(C)(C)C)c1` (centres undefined) it is -6.1%.
In the case of `CC(C)(C)n1ncc2c1NC(=O)CC2c1ccc(C(=O)O)cc1` (centres undefined) it was -13.3%; in that of `CC(C)(C)n1ncc2c1NC(=O)CC2c1ccc(C#N)cc1` (centres undefined), -10%; in that of `CC(C)CNC(=O)CSC1CCc2ccccc2NC1=O` (centres undefined), -15.8%.
The figure for `CC(C)NC(=O)C(C)NC(=O)N1CCN(c2ccc(Cl)cc2)CC1` (centres undefined) is 19%.
As to `O=C1CC(c2cccs2)c2sc(C(=O)O)c(-c3ccccc3)c2N1` (centres undefined), the cytotoxicity at 70.5 h was -9.97%.
The figure for `O=C(NCc1ccc(Cl)cc1)C1CCCN(c2ccc3nncn3n2)C1` (centres undefined) is -9.54%.
In the case of `COC(=O)Cn1c(=O)nc2n1C(=O)N(c1ccc(Br)cc1)C2` it was 10.9%.
The figure for `Cc1[nH]/c(=N\C(=O)c2csc(NC3CCCC3)n2)sc1C` is 31.2%; for `Cc1cs/c(=N/C(=O)c2csc(NCC(C)C)n2)[nH]1` it is -4.1%.
With `CC(C)(C)n1ncc2c1NC(=O)CC2c1c(F)cccc1F` (centres undefined), the cytotoxicity at 70.5 h was -14.5%.
In the case of `COc1cccc2c3c(c(=O)[nH]c12)CCO3` it was 3.58%; in that of `COc1cccc2c3c(c(=O)n(C)c12)CCC(C)(C)O3`, -10.4%.
Consider `COc1cc(OCC(=O)NCCc2ccccc2)cc(OC)c1OC`, for which the cytotoxicity at 70.5 h is -5.97%.
As to `O=c1[nH]cnc2[nH]c(N3CCNCC3)nc12`, the cytotoxicity at 70.5 h was -2.26%.
For `Cc1ccccc1-n1c(O)cc(C)c(C#N)c1=O`, the cytotoxicity at 70.5 h was -1.83%.
In the case of `Cc1ccc(-n2c(O)cc(C)c(C#N)c2=O)c(C)c1` it was -1.45%; in that of `CCN(CC)S(=O)(=O)c1cnccc1N1CCN(C(C)C)CC1`, 7.88%; in that of `CCCNS(=O)(=O)c1cnccc1N1CCN(C(C)C)CC1`, 7.02%.
In the case of `Cn1cc(I)c(C(=O)NC2CCCCC2)n1` it was 28.2%; in that of `CCn1cc(C(=O)Nc2cc(C(=O)OC)ccc2C(=O)OC)cn1`, -9%; in that of `CCn1cc(C(=O)Nc2cc(C)ccc2C)cn1`, 17%.
Take `O=c1c2cn[nH]c2nc(SCCN2CCCC2)n1-c1ccccc1`: the cytotoxicity at 70.5 h is -6.58%.
In the case of `CC(=O)c1c(C)nn(S(=O)(=O)c2ccc(C)cc2)c1C` it was 0.514%; in that of `CCCOC1Sc2nnc(C)n2N=C1c1ccccc1` (centres undefined), -9.6%.
The figure for `CCn1c(O)c(C(C)=O)c2cc(C)ccc21` is -6.19%.
With `CC(=O)c1c(O)n(C)c2ccc(F)cc12`, the cytotoxicity at 70.5 h is -4.46%.
In the case of `CCc1nn(-c2cc(Oc3cccc(C)c3)nc(C)n2)c(N)c1C#N` it was -8.17%; in that of `CCOC(=O)c1cnn(-c2cc(Oc3cc(C)ccc3C)ncn2)c1N`, -0.831%; in that of `O=C(Cn1ccnc1)N1CC[C@H](Oc2cccc(F)c2)[C@@H](O)CC1`, 13%.
With `Cc1nccn1[C@@H]1CC[C@@H](N(C)S(=O)(=O)c2ccccc2F)[C@H]1O`, the cytotoxicity at 70.5 h was -3.2%.
The figure for `COCC(=O)N1CCC(c2c(C(=O)N(C)C)sc3ncccc23)C1` (centres undefined) is 27.1%.
In the case of `CO[C@@H]1CC[C@@H](NC(=O)CCc2ccc(Cl)cc2)[C@H]1O` it was -7.81%; in that of `CC(=O)N1CCCC1(C(=O)N1CCCC1)c1cnccn1` (centres undefined), 0.591%.
In the case of `COc1ccccc1CN1CCC(c2nccc(C)n2)C1` (centres undefined) it was 27.1%.
As for `Cc1ncoc1C(=O)N1CCCC(c2ccc3c(N)nn(C)c3n2)C1` (centres undefined), the cytotoxicity at 70.5 h was -4.28%.
In the case of `CN1CCC(Cc2cnc(CNC(=O)Cc3cccc(F)c3)cn2)CC1` it was -2.96%.
The figure for `Cc1occc1C(=O)N1CCCC(C2=Nc3ccccc3S(=O)(=O)N2)C1` (centres undefined) is -5.45%; for `Cn1cnc(S(=O)(=O)N2CCCC2c2ccnc3nccn23)c1` (centres undefined) it is 0.418%.
The figure for `O=C(c1cccc(-n2cnnc2)c1)N1C[C@@H](O)[C@H](N2CCOCC2)C1` is -1.32%; for `O=C(C1CC1)N1CCCC(C2=Nc3ccccc3S(=O)(=O)N2)C1` (centres undefined) it is -4.52%.
Regarding `CC(C)c1cc(C(=O)NCCc2nc(-c3ccncc3)n[nH]2)[nH]n1`, the cytotoxicity at 70.5 h is -5.69%.
In the case of `O=C(Cc1ccccc1F)N1CCC[C@@H]1Cn1c(=O)oc2ccccc21`, the cytotoxicity at 70.5 h amounted to 6.08%.
The figure for `CN(CCc1ccccc1)Cc1c(C2CC2)[nH]c2ncccc12` is 2.38%; for `CC(=O)N1CCC(Cc2cccc(-c3ccnn3C)n2)CC1` it is -8.71%; for `O=C(CCn1ccnc1)N1CCC(c2nnc(-c3ccccn3)o2)CC1` it is -3.21%.
In the case of `Cc1cc(C)nc(N2CCCC(C)(c3[nH]ncc3C(=O)N(C)C)C2)n1` (centres undefined), the cytotoxicity at 70.5 h was -4.44%.
As for `COCCNc1ccc(CC2CCCN(C3CCCC3)C2)nn1` (centres undefined), the cytotoxicity at 70.5 h is -4.76%.
In the case of `CC(C)(C)C(=O)N1CCC(c2cnc(-c3cn[nH]c3)cn2)CC1` it was -4.2%; in that of `CS(=O)(=O)N1CCN(C(=O)c2cncs2)CC(C(N)=O)C1` (centres undefined), -5.12%; in that of `CN(C(=O)c1ccc(C#N)cc1)c1nnc(C2CCOC2)s1` (centres undefined), -6.28%.
Take `COc1cccc([C@@]2(O)CC[C@@H]3CN(C(=O)c4ccn(C)n4)C[C@@H]32)c1`: the cytotoxicity at 70.5 h is -6.49%.
In the case of `Cc1nn(C)c(C)c1-c1ccc(=O)n(C(C)C(=O)NC2CCCCC2)n1` (centres undefined) it was -17.2%; in that of `Cc1cc(-c2cnc(N3CCN(C)CC3)nc2C(C)C)on1`, -3.07%.
The figure for `Cc1cc(-c2cnc(N3CCC(O)CC3)nc2C(C)C)on1` is 20.4%; for `Cc1cc(-c2cnc(N3CCC(C(N)=O)CC3)nc2C(C)C)on1` it is 9.37%; for `Cc1cc(O)n2nc(C3CCN(C(=O)c4ccccn4)CC3)cc2n1` it is 18.6%.
In the case of `CCc1cc(O)n2nc(C3CCN(C(=O)c4cccnc4)CC3)cc2n1` it was 21.2%.
With `CCc1nc(-c2cncnc2C2CCNC2)no1` (centres undefined), the cytotoxicity at 70.5 h came out at 18%.
In the case of `COCC(=O)N1CCCC(C)(c2nncn2C)C1` (centres undefined) it was -14.6%.
For the molecule `OCCN1CCC(Cc2nccs2)CC1`, the cytotoxicity at 70.5 h is 1.19%.
As for `O=C(N[C@@H]1CN(CCc2ccc(F)cc2)C[C@H]1O)c1cscn1`, the cytotoxicity at 70.5 h is -6.14%.
In the case of `CN(c1ccncn1)C1CC2(CCN(C(=O)c3cccn3C)C2)C1` (centres undefined) it was -0.487%; in that of `Cc1ncsc1CN1CC[C@H](O)[C@@H](n2cnc3c(N)ncnc32)CC1`, 8.32%; in that of `CC1CCCCN1c1nc2c(c(=O)[nH]1)CCN(Cc1ccc(O)cc1)C2` (centres undefined), -8.85%.
Consider `CC1CCCCN1c1nc2c(c(=O)[nH]1)CCN(Cc1ccccc1O)C2` (centres undefined), for which the cytotoxicity at 70.5 h was -7.53%.
For `CCC(CN1CCCC1)n1cncc1-c1cnn(-c2ccc(F)cc2)c1` (centres undefined), the cytotoxicity at 70.5 h was -5.95%.
`CCC(CN1CCCC1)n1cncc1-c1cnn(Cc2ccccc2)c1` (centres undefined): the cytotoxicity at 70.5 h was -4.48%.
For the molecule `CC(=O)Nc1ccc(Oc2cc(C)nc(C3CCNCC3)c2)cc1`, the cytotoxicity at 70.5 h was -15.5%.
The figure for `CC(Cn1cncc1-c1cnn(Cc2ccccc2)c1)N1CCCCC1` (centres undefined) is -1.65%; for `Cc1nc(-c2cncnc2C2CCCNC2)no1` (centres undefined) it is 26.9%; for `Cc1[nH]c2c(C)cccc2c1CC(=O)N(C)CCN(C)C` it is -8.69%.
The figure for `Cn1cc(CN2CCOC(c3cccc(-c4cncnc4)n3)C2)cn1` (centres undefined) is -5.7%; for `Cn1nccc1CN1CCOC(c2cccc(-c3cncnc3)n2)C1` (centres undefined) it is 14.3%; for `Cc1ncc(C(=O)N2CCOC(C(=O)N3CCCCCC3)C2)c(C)n1` (centres undefined) it is 1.17%.
On to `NCc1ccccc1Sc1ccc(O)cc1`, for which the cytotoxicity at 70.5 h was -8.8%.
The figure for `CC(N)Cc1ccccc1Sc1ccc(O)cc1` (centres undefined) is -7.28%.

(Values after ChEMBL document CHEMBL3507680, “University of Dundee, Gates Library screen for HepG2 cell viability”.)
